Among the data in patent publication US20260258048A1, “LACTAM-CONTAINING IMIDAZOPYRIDAZINE IL-17 INHIBITOR COMPOUNDS” (Janssen Pharmaceutica NV, priority 2023, published 2026) are IC50 values, retold here.

pIC50: −log10 of the molar value. A value given as a limit tells only on which side of the number the result lay.

In general, pIC50 refers to −log10 of the IC50, conventionally taken in molar units. Low values mean a large IC50, high ones a small IC50.

This assay deals with IL-17A-induced G-CSF production in human normal keratinocyte (NHK). Put plainly: NHK assay: IL-17A-induced G-CSF production in normal human keratinocytes. Conditions: Homo sapiens, Keratinocyte, 24 h, IL-17A 5 ng/mL, class of the average IC50 where tested more than once. The assay is classed as cell-based. The method, then: IL-17A acts directly on keratinocytes through binding to dimeric receptor IL-17RA/RC and drives the production of a number of inflammatory mediators known to be elevated in psoriasis lesional tissue. IL-17A small molecule inhibitors that block the IL-17A to interact with IL-17R would inhibit the IL-17A signaling in its targeted cells such as keratinocytes. The compound functional activity is evaluated for its impact on IL-17A-induced G-CSF production in human normal keratinocyte (NHK).
Adult normal human keratinocytes are cultured in keratinocyte growth medium (Lonza) in a flask till reaching ~90% confluence, then cells are transferred to a 384-well plate at density of 3000-4000 cell/well. Recombinant human IL-17A (Gibco PHC9174) is pre-incubated with titrated compound or DMSO for 1 h at rt then added to the cell culture plate. The final concentration of IL-17A is 5 ng/mL and DMSO is 0.2%, in the culture containing 5% FBS. Cells are cultured/treated for 24 h at 37° C. Supernatants are collected and G-CSF production is measured through HTRF technology using Human G-CSF Kit (CisBio). G-CSF concentration was extrapolated from the standard curve and IC50 is determined using GraphPad Prism. Cell viability is also evaluated using CellTiter-Glo kit (Promega) and effect of compound on cell viability is compared to DMSO control.
Take `CC(C)(CC[C@H](NC(=O)c1nonc1C1CC1)c1cn2ncc([C@@H](O)[C@@H]3C[C@@H](C(F)(F)F)NC3=O)cc2n1)C(F)(F)F` (relative stereo) [Example 67, 4-Cyclopropyl-N—((S)-5,5,5-trifluoro-1-(7-((S*)-hydroxy((3S*,5S)-2-oxo-5-(trifluoromethyl)pyrrolidin-3-yl)methyl)imidazo[1,2-b]pyridazin-2-yl)-4,4-dimethylpentyl)-1,2,5-oxadiazole-3-carboxamide]: the pIC50 is < 5.40.

As to `CC(C)(CC[C@H](NC(=O)c1nonc1C1CC1)c1cn2ncc(CC3C[C@@](C)(C(F)(F)F)NC3=O)cc2n1)C(F)(F)F` (single isomer, unassigned) [Example 57, 4-Cyclopropyl-N—((S)-5,5,5-trifluoro-4,4-dimethyl-1-(7-(((3S*,5S)-5-methyl-2-oxo-5-(trifluoromethyl)pyrrolidin-3-yl)methyl)imidazo[1,2-b]pyridazin-2-yl)pentyl)-1,2,5-oxadiazole-3-carboxamide], the pIC50 is > 6.40. The value for `O=C(N[C@H](c1cn2ncc(C[C@H]3C(=O)NCC[C@@H]3C(F)(F)F)cc2n1)C1CCC(F)(F)CC1)c1nonc1C1CC1` (relative stereo) [Example 4, 4-Cyclopropyl-N—[(S)-(4,4-difluorocyclohexyl)-[7-[[(3R*,4S*)-2-oxo-4-(trifluoromethyl)-3-piperidyl]methyl]imidazo[1,2-b]pyridazin-2-yl]methyl]-1,2,5-oxadiazole-3-carboxamide] was 5.40 to 6.40. The value for `O=C(N[C@H](c1cn2ncc(CC3CC(C(F)(F)F)CNC3=O)cc2n1)C1CCC(F)(F)CC1)c1nonc1C1CC1` (single isomer, unassigned) [Example 35, 4-Cyclopropyl-N-((1S)-(4,4-difluorocyclohexyl)(7-(((3S*)-2-oxo-5-(trifluoromethyl)piperidin-3-yl)methyl)imidazo[1,2-b]pyridazin-2-yl)methyl)-1,2,5-oxadiazole-3-carboxamide] was 5.40 to 6.40; that for `O=C(N[C@H](c1cn2ncc(C[C@H]3CC[C@@H](C(F)(F)F)NC3=O)cc2n1)C1CCC(F)(F)CC1)c1nonc1C1CC1` (relative stereo) [Example 30, 4-Cyclopropyl-N—((S)-(4,4-difluorocyclohexyl)(7-(((3R*,6S*)-2-oxo-6-(trifluoromethyl)piperidin-3-yl)methyl)imidazo[1,2-b]pyridazin-2-yl)methyl)-1,2,5-oxadiazole-3-carboxamide] was < 5.40. As for `O=C(N[C@H](c1cn2ncc(C[C@H]3CC[C@H](C(F)(F)F)NC3=O)cc2n1)C1CCC(F)(F)CC1)c1nonc1C1CC1` (relative stereo) [Example 29, 4-Cyclopropyl-N—((S)-(4,4-difluorocyclohexyl)(7-(((3R*,6R*)-2-oxo-6-(trifluoromethyl)piperidin-3-yl)methyl)imidazo[1,2-b]pyridazin-2-yl)methyl)-1,2,5-oxadiazole-3-carboxamide], the figure is 5.40 to 6.40; as for `O=C(N[C@H](c1cn2ncc(C[C@@H]3CC[C@@H](C(F)(F)F)NC3=O)cc2n1)C1CCC(F)(F)CC1)c1nonc1C1CC1` (relative stereo) [Example 32, 4-Cyclopropyl-N—((S)-(4,4-difluorocyclohexyl)(7-(((3S*,6S*)-2-oxo-6-(trifluoromethyl)piperidin-3-yl)methyl)imidazo[1,2-b]pyridazin-2-yl)methyl)-1,2,5-oxadiazole-3-carboxamide], < 5.40.

Turning to `COC[C@]1(Cc2cnn3cc([C@@H](NC(=O)c4nonc4C4CC4)C4CCC(F)(F)CC4)nc3c2)C[C@@H](C(F)(F)F)NC1=O` (single isomer, unassigned) [Example 99], the pIC50 is > 6.40. As for `O=C(N[C@H](c1cn2ncc(C[C@@H]3CC[C@H](C(F)(F)F)NC3=O)cc2n1)C1CCC(F)(F)CC1)c1nonc1C1CC1` (relative stereo) [Example 31, 4-Cyclopropyl-N—((S)-(4,4-difluorocyclohexyl)(7-(((3S*,6R*)-2-oxo-6-(trifluoromethyl)piperidin-3-yl)methyl)imidazo[1,2-b]pyridazin-2-yl)methyl)-1,2,5-oxadiazole-3-carboxamide], the figure is > 6.40; as for `Cc1nonc1C(=O)N[C@@H](CCC(C)(C)C(F)(F)F)c1cn2ncc(C[C@H]3C[C@@H](C(F)(F)F)NC3=O)cc2n1` (single isomer, unassigned) [Example 37], > 6.40. The value for `C[C@@]1(C(F)(F)F)CC(Cc2cnn3cc([C@@H](NC(=O)c4nonc4C4CC4)C4CCC(F)(F)CC4)nc3c2)C(=O)N1` (single isomer, unassigned) [Example 55, 4-Cyclopropyl-N—((S)-(4,4-difluorocyclohexyl(7-(((3S*,5S)-5-methyl-2-oxo-5-(trifluoromethyl)pyrrolidine-3-yl)methyl)imidazo[1,2-b]pyrrolidin-2-yl)methyl)-1,2,5-oxadiazole-3-carboxamide] was > 6.40; that for `Cc1nonc1C(=O)N[C@H](c1cn2ncc([C@@](C)(O)[C@@]3(C)C[C@@H](C(F)(F)F)NC3=O)cc2n1)C1CCC(F)(F)CC1` [Example 106, N—((S)-(4,4-Difluorocyclohexyl)(7-((R)-1-hydroxy-1-((3R,5S)-3-methyl-2-oxo-5-(trifluoromethyl)pyrrolidin-3-yl)ethyl)imidazo[1,2-b]pyridazin-2-yl)methyl)-4-methyl-1,2,5-oxadiazole-3-carboxamide] was > 6.40. As for `O=C(N[C@H](c1cn2ncc(C[C@H]3C[C@H](C(F)(F)F)CNC3=O)cc2n1)C1CCC(F)(F)CC1)c1nonc1C1CC1` (relative stereo) [Example 34, 4-Cyclopropyl-N—((S)-(4,4-difluorocyclohexyl)(7-(((3R*,5S*)-2-oxo-5-(trifluoromethyl)piperidin-3-yl)methyl)imidazo[1,2-b]pyridazin-2-yl)methyl)-1,2,5-oxadiazole-3-carboxamide], the figure is < 5.40; as for `CC(C)(CC[C@H](NC(=O)c1nonc1C1CC1)c1cn2ncc([C@@H](O)[C@H]3C[C@@H](C(F)(F)F)NC3=O)cc2n1)C(F)(F)F` (relative stereo) [Example 66, 4-Cyclopropyl-N—((S)-5,5,5-trifluoro-1-(7-((S*)-hydroxy((3R*,5S)-2-oxo-5-(trifluoromethyl)pyrrolidin-3-yl)methyl)imidazo[1,2-b]pyridazin-2-yl)-4,4-dimethylpentyl)-1,2,5-oxadiazole-3-carboxamide], 5.40 to 6.40. For `C[C@H]1CNC(=O)[C@@H]1Cc1cnn2cc([C@@H](NC(=O)c3nonc3C3CC3)C3CCC(F)(F)CC3)nc2c1` (relative stereo) [Example 87, 4-Cyclopropyl-N—[(S)-(4,4-difluorocyclohexyl)-[7-[[(3R*,4R*)-4-methyl-2-oxo-pyrrolidin-3-yl]methyl]imidazo[1,2-b]pyridazin-2-yl]methyl]-1,2,5-oxadiazole-3-carboxamide], the pIC50 was < 5.40. As for `O=C(N[C@H](c1cn2ncc(C[C@@H]3C(=O)NCC[C@H]3C(F)(F)F)cc2n1)C1CCC(F)(F)CC1)c1nonc1C1CC1` (relative stereo) [Example 3, 4-Cyclopropyl-N—[(S)-(4,4-difluorocyclohexyl)-[7-[[(3S*,4R*)-2-oxo-4-(trifluoromethyl)-3-piperidyl]methyl]imidazo[1,2-b]pyridazin-2-yl]methyl]-1,2,5-oxadiazole-3-carboxamide], the figure is < 5.40. As for `CC[C@@H]1C[C@@H](Cc2cnn3cc([C@@H](NC(=O)c4nonc4C4CC4)C4CCC(F)(F)CC4)nc3c2)C(=O)N1` (relative stereo) [Example 90, 4-Cyclopropyl-N—[(S)-(4,4-difluorocyclohexyl)-[7-[[(3R*,5R*)-5-ethyl-2-oxo-pyrrolidin-3-yl]methyl]imidazo[1,2-b]pyridazin-2-yl]methyl]-1,2,5-oxadiazole-3-carboxamide], the figure is > 6.40; as for `C[C@@H]1C[C@@H](Cc2cnn3cc([C@@H](NC(=O)c4nonc4C4CC4)C4CCC(F)(F)CC4)nc3c2)C(=O)N1` (relative stereo) [Example 84, Cyclopropyl-N—((S)-(4,4-difluorocyclohexyl)(7-(((3R*,5R*)-5-methyl-2-oxopyrrolidin-3-yl)methyl)imidazo[1,2-b]pyridazin-2-yl)methyl)-1,2,5-oxadiazole-3-carboxamide], < 5.40; as for `O=C(N[C@H](c1cn2ncc(C[C@H]3C[C@@H](C(F)(F)F)CNC3=O)cc2n1)C1CCC(F)(F)CC1)c1nonc1C1CC1` (relative stereo) [Example 33, 4-Cyclopropyl-N—((S)-(4,4-difluorocyclohexyl)(7-(((3R*,5R*)-2-oxo-5-(trifluoromethyl)piperidin-3-yl)methyl)imidazo[1,2-b]pyridazin-2-yl)methyl)-1,2,5-oxadiazole-3-carboxamide], 5.40 to 6.40.
